According to patent publication US20200107546A1, “METHODS AND COMPOSITIONS FOR CONTROLLING UNDESIRED VEGETATION SUCH AS INVASIVE ANNUAL GRASSES” (priority 2018, published 2020):

Legend:
[1] = system: Bromus tectorum (cheatgrass); assay: Example 2 post-emergence field application, control of Bromus tectorum; format: in vivo; details: Plateau 7 oz/A, Esplanade 200SC 7 oz/A, Raptor 6 oz/A, 0.25% NIS
Description: (§1) In the following Examples, desirable perennial grasses were treated to control the invasive annual grass Bromus tectorum (cheatgrass) either pre-emergence or post-emergence with either indaziflam, imazapic, imazamox, glyphosate, or combinations thereof. Imazapic, glyphosate, and combinations comprising either imazapic and/or glyphosate were used for purposes of comparison.
(§2) Table 3 summarizes the herbicidal efficacies (% Control), damage caused to desired perennial grasses (% Injury), and cover (% Cover) when the active ingredients of Table 1 were applied to perennial grasses of species Bromus inermis (smooth brome) and Agropyron smithii (western wheatgrass).
(§3) All treatments include 0.25% NIS.
(§4) Imazapic, indaziflam, imazamox, and a combination of indaziflam and imazamox were applied via a backpack research sprayer to perennial grasses to control Bromus tectorum post-emergence.

[2] = system: perennial grasses Bromus inermis (smooth brome) and Agropyron smithii (western wheatgrass); assay: Example 2 post-emergence field application, injury and cover of desirable perennial grasses; format: in vivo
Description: as §1, §2, §3, §4

[3] = Soil half-life of herbicides
Source text: As used herein, “short-residual” denotes an herbicide having a median soil half-life of no greater than 50 days, such as less than 40 days or less than 30 days.
Imazamox is a short-residual imidazolinone herbicide having a soil half-life of about 20-30 days. Additionally, imazamethabenz methyl is a short-residual imidazolinone herbicide having a soil half-life of about 25-36 days.

[4] = system: Bromus tectorum (cheatgrass); assay: Example 3 pre-emergence field application, control and biomass of Bromus tectorum; format: in vivo; details: for % Control Bromus tectorum / Biomass (kg/ha) Bromus tectorum: first year after treatment, 0.25% NIS
Description: as §1
(§5) Table 3 summarizes the herbicidal efficacies (% Control) and damage caused to desired perennial grasses (% Injury) during the first year after the active ingredients of Table 1 were applied to perennial grasses of species Hesperostipa comata (needle-and-thread), Aristida purpurea (purple three-awn) and Bouteloua gracilis (blue grama). Table 4 further sets forth the biomass in kilograms per hectare (kg/ha) of Bromus tectorum and perennial grass measured in the first year after treatment.
as §3
(§6) Imazapic, indaziflam, and a combination of indaziflam and imazamox were applied via a backpack research sprayer to desirable perennial grasses to control unwanted Bromus tectorum pre-emergence.

[5] = system: perennial grasses Hesperostipa comata (needle-and-thread), Aristida purpurea (purple three-awn) and Bouteloua gracilis (blue grama); assay: Example 3 pre-emergence field application, injury and biomass of desirable perennial grasses; format: in vivo
Description: as §1, §5, §3, §6

[6] = Year 1 after treatment, post-emergence, Plateau 7 oz/A, Esplanade 200SC 7 oz/A, Raptor 6 oz/A, 0.25% NIS
[7] = Year 2 after treatment, post-emergence, Plateau 7 oz/A, Esplanade 200SC 7 oz/A, Raptor 6 oz/A, 0.25% NIS
[8] = Plateau 7 oz/A, Esplanade 200SC 7 oz/A, Raptor 6 oz/A
[9] = pre-emergence, first year after treatment, Esplanade 200SC 3.5 oz/A, 0.25% NIS
[10] = pre-emergence, first year after treatment, Esplanade 200SC 5 oz/A, 0.25% NIS
[11] = pre-emergence, first year after treatment, Plateau 7 oz/A, Esplanade 200SC 7 oz/A, Raptor 6 oz/A, 0.25% NIS
[12] = in vivo, 1 year after treatment

COCc1cnc(C2=NC(C)(C(C)C)C(=O)N2)c(C(=O)O)c1 (racemic) [Imazamox, 2-[(RS)-4-isopropyl-4-methyl-5-oxo-2-imidazolin-2-yl]-5-methoxymethylnicotinic acid]
% Control Bromus tectorum ([1]; Year 1 after treatment): 98% | % Control Bromus tectorum ([1]; Year 2 after treatment): 20% | % Injury Perennial grasses [2, 6]: 0% | % Cover Perennial grasses [2, 7]: 63% | % Injury Perennial grasses [2, 7]: 0%

CCc1cnc(C2=NC(C)(C(C)C)C(=O)N2)c(C(=O)O)c1 (stereo not drawn) [Imazethapyr]
Median soil half-life [3]: 75 days

Cc1ccc2c(c1)[C@H](Nc1nc(N)nc(C(C)F)n1)[C@@H](C)C2 (mixture of isomers) [Indaziflam, N2-[(1R,2S)-2,3-dihydro-2,6-dimethyl-1H-inden-1-yl]-6-[(1RS)-1-fluoroethyl]-1,3,5-triazine-2,4-diamine]
% Control Bromus tectorum ([4]; Esplanade 200SC 3.5 oz/A): 72% | Biomass (kg/ha) Bromus tectorum ([4]; Esplanade 200SC 3.5 oz/A): 83 kg/ha | % Control Bromus tectorum ([4]; Esplanade 200SC 5 oz/A): 82% | Biomass (kg/ha) Bromus tectorum ([4]; Esplanade 200SC 5 oz/A): 18 kg/ha | % Control Bromus tectorum [4, 8]: 80% | Biomass (kg/ha) Bromus tectorum [4, 8]: 32 kg/ha | control of invasive Bromus tectorum ([4]; indaziflam alone, span over the rates 3.5, 5 and 7 oz/A): 72-82% | % Injury Perennial grasses [5, 9]: 10% | Biomass (kg/ha) Perennial grasses [5, 9]: 54 kg/ha | % Injury Perennial grasses [5, 10]: 0% | Biomass (kg/ha) Perennial grasses [5, 10]: 63 kg/ha | % Injury Perennial grasses [5, 11]: 5% | Biomass (kg/ha) Perennial grasses [5, 11]: 75 kg/ha | Perennial grass biomass ([5]; pre-emergence, indaziflam alone, span over the rates 3.5, 5 and 7 oz/A): 54-75 kg/ha | % Control Bromus tectorum ([1]; Year 1 after treatment): 37% | % Control Bromus tectorum ([1]; Year 2 after treatment): 93% | % Injury Perennial grasses [2, 6]: 0% | % Cover Perennial grasses [2, 7]: 72% | % Injury Perennial grasses [2, 7]: 0%

Cc1cnc(C2=NC(=O)C(C)(C(C)C)N2)c(C(=O)O)c1 (stereo not drawn) [Imazapic]
% Control Bromus tectorum [4, 8]: 90% | Biomass (kg/ha) Bromus tectorum [4, 8]: 7 kg/ha | % Injury Perennial grasses [5, 12]: 10% | Biomass (kg/ha) Perennial grasses [5, 11]: 91 kg/ha | Median soil half-life [3]: 120 days | % Control Bromus tectorum ([1]; Year 1 after treatment): 97% | % Control Bromus tectorum ([1]; Year 2 after treatment): 77% | % Cover Perennial grasses [2, 7]: 72% | % Injury Perennial grasses [2, 12]: 15% | % Injury Perennial grasses ([2]; in vivo, 2 year after treatment): 1%

CC(C)C1(C)N=C(c2ncccc2C(=O)O)NC1=O (stereo not drawn) [Imazapyr]
Median soil half-life [3]: 83 days
